Test results published in PubChem BioAssay (NCI).
“And” between values parts separate entries of the source, which are not always exact repeats. Equal entries are not always repeated.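 Following 48 hours of exposure in 96-well plates, responses at five concentrations were used to interpolate endpoints linearly. GI50 marks 50% less growth. TGI: concentration producing complete growth inhibition.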

How the values were obtained:
Experiment in all cases: growth of human tumour cells (NCI), 48 h
SR leukemia = system: SR leukemia
SN12C renal = system: SN12C renal
A498 renal = system: A498 renal
DU-145 prostate = system: DU-145 prostate
HL-60(TB) leukemia = system: HL-60(TB) leukemia
A549 NSCLC = system: A549 NSCLC
SK-MEL-2 melanoma = system: SK-MEL-2 melanoma
TK-10 renal = system: TK-10 renal
EKVX NSCLC = system: EKVX NSCLC
HOP-92 NSCLC = system: HOP-92 NSCLC
NCI-H226 lung = system: NCI-H226 lung
HCC-2998 colon = system: HCC-2998 colon

Row | SMILES | TGI (SR leukemia) | TGI (SN12C renal) [µM] | TGI (A498 renal) | TGI (DU-145 prostate) [µM] | TGI (HL-60(TB) leukemia) | TGI (A549 NSCLC) [µM] | TGI (SK-MEL-2 melanoma) | TGI (TK-10 renal) | TGI (EKVX NSCLC) [µM] | TGI (HOP-92 NSCLC) | TGI (NCI-H226 lung) [µM] | TGI (HCC-2998 colon) | GI50 (SR leukemia) | GI50 (SK-MEL-2 melanoma)
1 | CCOC(=O)c1cc(=C2\CCN(CC(C)CC)C2=S)/c(=C(/O)CC)[nH]1 (stereo not given) | 26.3 µM | 39.2 | 29 µM | 30.2 | 27.3 µM | > 100 | 44.4 µM | 28.6 µM | 35.3 | 39.6 µM | 45.3 | – | – | –
2 | O=C(/C(=C(/Br)I)c1ccccc1)c1ccccc1 | > 100 µM | 49.9 | 28.7 µM | 30.9 | > 100 µM | > 100 | – | 69.1 µM | 89.1 | 35.6 µM | 40.4 | 30.1 µM | – | –
3 | N#Cc1c(N)[nH]c(=S)c(C#N)c1-c1cccc(Cl)c1 | 40.6 µM | 56.3 | > 100 µM | > 100 | 65.2 µM | > 100 | 56.6 µM | > 100 µM | 97.9 | > 100 µM | > 100 | 35.6 µM | – | –
4 | Cc1c(S(=O)(=O)c2ccccc2)c(N)n(Cc2ccccc2)c1C | > 100 µM | > 100 | > 100 µM | > 100 | > 100 µM | > 100 | > 100 µM | > 100 µM | > 100 | > 100 µM | > 100 | > 100 µM | – | –
5 | CCCCc1c(O)nc(Nc2nc3ccccc3[nH]2)[nH]c1=O | > 100 µM | > 100 | > 100 µM | > 100 | > 100 µM | > 100 | > 100 µM | > 100 µM | > 100 | – | > 100 | – | – | –
6 | COc1ccc(-c2c(C#N)c(S)n(C3OC(COC(C)=O)C(OC(C)=O)C(OC(C)=O)C3OC(C)=O)c(=O)c2C#N)cc1 (stereo not given) | > 100 µM and 59.3 µM | > 100 | 90.5 µM and 77.3 µM | > 100 | > 100 µM and 45.6 µM | > 100 | > 100 µM and 36.1 µM | > 100 µM and 92.2 µM | > 100 | 67 µM and 53.5 µM | > 100 | 98.9 µM and 64.6 µM | 3.43 µM and 17.9 µM | 91.5 µM and 20 µM
7 | CCOC(=O)c1sc2nc(SC)nc3c2c1N=CN3c1ccc(Br)cc1 | > 100 µM | > 100 | > 100 µM | > 100 | > 100 µM | > 100 | > 100 µM | > 100 µM | > 100 | > 100 µM | > 100 | > 100 µM | – | –
8 | Cc1ccc(N=Nc2c3c(c(O)c4ccccc24)CCC(C)(C)O3)cc1 | 38.8 µM | 28.5 | 38.6 µM | 26 | 49.7 µM | 31.8 | 36.7 µM | 88.5 µM | 75.3 | > 100 µM | > 100 | 34.3 µM | – | –
9 | COc1ccc(-c2c(C#N)c(N)n(C3OC(CO)C(O)C(O)C3O)c(=S)c2C#N)cc1 (stereo not given) | > 100 µM | > 100 | > 100 µM | > 100 | > 100 µM | > 100 | > 100 µM | > 100 µM | > 100 | > 100 µM | > 100 | > 100 µM | – | –
10 | CC12CC(c3ccccc3O1)C(C(=O)Nc1ccc(F)cc1)C(=O)N2 (stereo not given) | > 100 µM | – | > 100 µM | > 100 | > 100 µM | > 100 | > 100 µM | – | > 100 | – | – | > 100 µM | – | –
11 | Cc1cccc(N2C(=O)C3ON(C(C(N)=O)c4ccccc4)C(c4c5ccccc5c(Cl)c5ccccc45)C3C2=O)c1C (stereo not given) | 5.53 µM | 15.6 | 32.2 µM | 43.2 | 23.3 µM | 48.5 | 20 µM | 25.3 µM | 22.5 | 22.6 µM | 14.9 | – | – | –
12 | c1cc2nnc1SCCSCCSc1ccc(nn1)SCCSCCS2 | > 100 µM | > 100 | > 100 µM | > 100 | > 100 µM | > 100 | > 100 µM | > 100 µM | > 100 | > 100 µM | > 100 | > 100 µM | – | –
13 | O=c1c2ccccc2[nH]c(=S)n1-c1ccc(N=Nc2cccc3c(O)cccc23)cc1 | > 100 µM | > 100 | – | > 100 | > 100 µM | > 100 | > 100 µM | > 100 µM | > 100 | > 100 µM | > 100 | > 100 µM | – | –
14 | c1cc(-c2cnc(-c3ccc4c(c3)CCCO4)o2)ccn1 | 13.4 µM | 46.4 | 25.8 µM | 24.8 | 21.9 µM | 51.5 | 24.8 µM | 42.1 µM | 40.5 | 49.4 µM | 31.7 | – | – | –
15 | CCOC(=O)c1cc(C2(O)CCN(Cc3ccccc3)C2=O)c(-c2cc(C)no2)[nH]1 (stereo not given) | > 100 µM | > 100 | > 100 µM | > 100 | 34.7 µM | > 100 | > 100 µM | > 100 µM | > 100 | – | > 100 | > 100 µM | – | –
16 | O=C1CC2C=CC(O)C(C1)C2 (stereo not given) | > 100 µM | > 100 | > 100 µM | > 100 | > 100 µM | – | > 100 µM | > 100 µM | – | – | > 100 | > 100 µM | – | –
17 | CC(C)(C)OC(=O)NCCCCC(NC(=O)OCc1ccccc1)C(N)=O (stereo not given) | > 100 µM | > 100 | – | > 100 | > 100 µM | > 100 | > 100 µM | > 100 µM | > 100 | – | > 100 | > 100 µM | – | –
18 | CCCCN(CC)c1nc(C)nc2c1c(C)c(C)n2-c1c(C)cc(C)cc1C | 31.9 µM | 40.9 | 31.3 µM | 30.2 | 19.3 µM | 30.2 | 25.7 µM | 31.1 µM | 27.5 | 21.5 µM | 30.1 | – | – | –
19 | COc1ncc(C=C(C#N)C#N)c(OC)n1 | 53.5 µM | 74.8 | > 100 µM | > 100 | 49.7 µM | > 100 | > 100 µM | > 100 µM | > 100 | > 100 µM | > 100 | – | – | –
20 | O=C1CC(c2ccco2)C2(C(=O)NC(=O)NC2=O)C(c2ccco2)C1 (stereo not given) | > 75 µM | > 75 | > 75 µM | > 75 | > 75 µM | > 75 | > 75 µM | > 75 µM | > 75 | – | – | > 75 µM | – | –
21 | Oc1ccccc1C(c1cc2c(cc1O)OCO2)N1CCOCC1 (stereo not given) | 24.6 µM | 34.3 | 42.2 µM | > 100 | 4.27 µM | 57.6 | 36 µM | – | > 100 | 34.1 µM | > 100 | 33.9 µM | – | –
22 | COc1ccc(Nc2c(C#N)c3n(c4ccccc24)c2ccccc2[n+]3C)cc1OC | > 100 µM | – | 20.4 µM | 18.5 | > 100 µM | 14.9 | 14.9 µM | 12.4 µM | 10.1 | > 34.2 µM | 10.4 | 13.7 µM | – | –
23 | CO[C@@H](C(=O)OC1C=CC2(CC1)C(=O)N(C)c1ccccc12)c1ccccc1 (stereo not given in full) | > 100 µM | > 100 | > 100 µM | > 100 | 94 µM | > 100 | > 100 µM | > 100 µM | > 100 | > 100 µM | – | > 100 µM | – | –
24 | CC(=O)NC1C(OCc2ccccc2)OC(CO)C(O)C1OCC(=O)N[C@@H](C)C(=O)N[C@H](CCC(=O)NCCNCCNc1c2ccccc2nc2cccc([N+](=O)[O-])c12)C(N)=O (stereo not given in full) | > 100 µM | > 100 | 48.1 µM | > 100 | > 100 µM | > 100 | 46.5 µM | > 100 µM | 91.1 | 66.5 µM | – | 22.5 µM | – | –
25 | O=c1[nH]cnc2c(C3OC(CO)C(O)C3O)c[nH]c12 (stereo not given) | > 100 µM | > 100 | – | > 100 | > 100 µM | > 100 | – | > 100 µM | > 100 | > 100 µM | > 100 | > 100 µM | – | –
26 | [N-]=[N+]=Nc1c(Cl)c(=O)n(-c2ccccc2)c2ccccc12 | > 100 µM | 51.2 | – | > 100 | > 100 µM | > 100 | 53.2 µM | – | – | 38.3 µM | – | 42.7 µM | – | –
27 | O=C1CC(C(O)CO)CC(=O)N1 (stereo not given) | > 100 µM | > 100 | > 100 µM | > 100 | > 100 µM | > 100 | – | > 100 µM | – | > 100 µM | > 100 | > 100 µM | – | –
28 | O=c1[nH]c2nc3ccccc3c(=O)n2/c1=C/c1ccc(O)cc1 | > 100 µM | > 100 | – | > 100 | > 100 µM | > 100 | > 100 µM | > 100 µM | > 100 | > 100 µM | > 100 | 69.9 µM | – | –
29 | CC(=O)OCC1OC(N2C(=O)/C(=C\c3ccc(Cl)cc3)C(N)=Nc3ccccc32)C(OC(C)=O)C(OC(C)=O)C1OC(C)=O (stereo not given) | 51.1 µM | > 100 | > 100 µM | > 100 | > 100 µM | > 100 | 74.6 µM | 88.2 µM | > 100 | 45.2 µM | – | 36.5 µM | – | –
